Values joined by “and” are separate entries in the source; they are usually repeats but may differ in a detail not shown here. Equal values may be shown once.
System: rivaroxaban rabbit model
Assay: reversal of anticoagulation in a rivaroxaban rabbit model (claw cut)
Format: in vivo, New Zealand White rabbits
Description: In doing so, anesthetized New Zealand White rabbits were treated with the factor Xa inhibitor rivaroxaban to achieve anticoagulation. The increased tendency to bleed associated with anticoagulation was determined by cutting the claws. Upon intravenous administration of prethrombin-1, the blood loss was measured again after the claws had been cut.

O=C(NC[C@H]1CN(c2ccc(N3CCOCC3=O)cc2)C(=O)O1)c1ccc(Cl)s1 [rivaroxaban]
Blood loss after rivaroxaban (rivaroxaban 7 μg/kg body weight): 22.3 mg
Blood loss after rivaroxaban (rivaroxaban 14 μg/kg body weight): 11.3 mg
Blood loss after rivaroxaban (rivaroxaban 35 μg/kg body weight): 30.4 mg
Blood loss after rivaroxaban (rivaroxaban 70 μg/kg body weight, individual rabbits): 165.0 mg and 98.7 mg and 20.8 mg and 51.8 mg and 77.4 mg and 108.5 mg and 51.2 mg
